US9247741B2, “Use of macrocyclic picolinamides as fungicides” (DOW AGROSCIENCES LLC, priority 2013, dated 2016)

Assays:
[1] = test system: Rhyncosporium secalis; experiment: Barley scald (RHYNSE) disease control; assay type: in vivo; settings: Hordeum vulgare, 24 h, 1 Day Protectant, read-out: RHYNSE disease control rating
Description: Technical grades of materials were dissolved in acetone, which were then mixed with nine volumes of water containing 110 ppm Triton X-100. The fungicide solutions were applied onto wheat seedlings using an automated booth sprayer to run-off. All sprayed plants were allowed to air dry prior to further handling. All fungicides were evaluated using the aforementioned method for their activity vs. all target diseases. Wheat leaf blotch and brown rust activity were also evaluated using track spray applications, in which case the fungicides were formulated as EC formulations, containing 0.1% Trycol 5941 in the spray solutions. Wheat plants (variety Yuma) were grown from seed in a greenhouse in 50% mineral soil/50% soil-less Metro mix until the first leaf was fully emerged, with 7-10 seedlings per pot. These plants were inoculated with an aqueous spore suspension of Septoria tritici either prior to or after fungicide treatments. After inoculation the plants were kept in 100% relative humidity (one day in a dark dew chamber followed by two to three days in a lighted dew chamber at 20° C.) to permit spores to germinate and infect the leaf. The plants were then transferred to a greenhouse set at 20° C. for disease to develop. When disease symptoms were fully expressed on the l^st leaves of untreated plants, infection levels were assessed on a scale of 0 to 100 percent disease severity. Percent disease control was calculated using the ratio of disease severity on treated plants relative to untreated plants. Evaluation of Fungicidal Activity: Barley Scald (Rhyncosporium secalis; Bayer code […]) Barley seedlings (variety Harrington) were propagated in soil-less Metro mix, with each pot having 8 to 12 plants, and used in the test when first leaf was fully emerged. Test plants were inoculated by an aqueous spore suspension of Rhyncosporium secalis 24 hr after fungicide treatments. After inoculation the plants were kept in a dew room at 20° C. with 100% relative humidity for 48 hr. The plants were then transferred to a greenhouse set at 20° C. for disease to develop. Fungicide formulation, application and disease assessment on the sprayed leaves followed the procedures as described in the Example A.

[2] = test system: Venturia inaequalis; experiment: Apple scab (VENTIN) disease control; assay type: in vivo; settings: 1 Day Protectant, 100 ppm
Description: Technical grades of materials were dissolved in acetone, which were then mixed with nine volumes of water containing 110 ppm Triton X-100. The fungicide solutions were applied onto wheat seedlings using an automated booth sprayer to run-off. All sprayed plants were allowed to air dry prior to further handling. All fungicides were evaluated using the aforementioned method for their activity vs. all target diseases. Wheat leaf blotch and brown rust activity were also evaluated using track spray applications, in which case the fungicides were formulated as EC formulations, containing 0.1% Trycol 5941 in the spray solutions. Wheat plants (variety Yuma) were grown from seed in a greenhouse in 50% mineral soil/50% soil-less Metro mix until the first leaf was fully emerged, with 7-10 seedlings per pot. These plants were inoculated with an aqueous spore suspension of Septoria tritici either prior to or after fungicide treatments. After inoculation the plants were kept in 100% relative humidity (one day in a dark dew chamber followed by two to three days in a lighted dew chamber at 20° C.) to permit spores to germinate and infect the leaf. The plants were then transferred to a greenhouse set at 20° C. for disease to develop. When disease symptoms were fully expressed on the l^st leaves of untreated plants, infection levels were assessed on a scale of 0 to 100 percent disease severity. Percent disease control was calculated using the ratio of disease severity on treated plants relative to untreated plants. Evaluation of Fungicidal Activity: Apple Scab (Venturia inaequalis; Bayer code […]) Apple seedlings (variety McIntosh) were grown in soil-less Metro mix, with one plant per pot. Seedlings with two expanding young leaves at the top (older leaves at bottom of the plants were trimmed) were used in the test. Plants were inoculated with a spore suspension of Venturia inaequalis 24 hr after fungicide treatment and kept in a 22° C. dew chamber with 100% RH for 48 hr, and then moved to a greenhouse set at 20° C. for disease to develop. Fungicide formulation, application and disease assessment on the sprayed leaves followed the procedures as described in the Example A.

[3] = test system: Phakopsora pachyrhizi; experiment: Asian soybean rust (PHAKPA) disease control; assay type: in vivo; settings: 25 ppm; for PHAKPA 1DP disease control rating: 1 Day Protectant; for PHAKPA 3DC disease control rating: 3 Day Curative
Description: Evaluation of Fungicidal Activity: Asian Soybean Rust (Phakopsora pachyrhizi; Bayer Code PHAKPA)
Technical grades of materials were dissolved in acetone, which were then mixed with nine volumes of water containing 0.011% Tween 20. The fungicide solutions were applied onto soybean seedlings using an automated booth sprayer to run-off. All sprayed plants were allowed to air dry prior to further handling.
Soybean plants (variety Williams 82) were grown in soil-less Metro mix, with one plant per pot. Two weeks old seedlings were used for testing. Plants were inoculated either 3 days prior to or 1 day after fungicide treatments. Plants were incubated for 24 h in a dark dew room at 22° C. and 100% RH then transferred to a growth room at 23° C. for disease to develop. Disease severity was assessed on the sprayed leaves.

SMILES	pest or weed control at 100 ppm [1] [%]	VENTIN disease control rating [2]	PHAKPA 1DP disease control rating [3]	PHAKPA 3DC disease control rating [3]	melting point [°C]
CCCC[C@H]1[C@H](C)OC(=O)[C@@H](NC(=O)c2nccc(OC)c2OCOC(C)=O)CCC[C@@H]1OCC1CC1 [Compound 73]	> 70				
CCCO[C@H]1CCC[C@H](NC(=O)c2nccc(OC)c2OC(C)=O)C(=O)O[C@@H](C)[C@@H]1CCC(C)C [Compound 74, 2-(((3S,7S,8S,9S)-8-isopentyl-9-methyl-2-oxo-7-propoxyoxonan-3-yl)carbamoyl)-4-methoxypyridin-3-yl acetate]	> 70	A (>70)	A (>70)	B (≦70)	46 to 50
COc1ccnc(C(=O)N[C@H]2CCC[C@H](Oc3ccccc3)[C@@H](CCC(C)C)[C@H](C)OC2=O)c1OCOC(C)=O [Compound 40]	> 70	A (>70)	A (>70)	B (≦70)	47 to 51
CCCO[C@H]1CCC[C@H](NC(=O)c2nccc(OC)c2OCOC(C)=O)C(=O)O[C@@H](C)[C@@H]1CCC(C)C [Compound 25, ((2-(((3S,7S,8S,9S)-8-isopentyl-9-methyl-2-oxo-7-propoxyoxonan-3-yl)carbamoyl)-4-methoxypyridin-3-yl)oxy)methyl acetate]	> 70	A (>70)	A (>70)	B (≦70)	
CCCO[C@H]1CCC[C@H](NC(=O)c2nccc(OC)c2OC(C)=O)C(=O)O[C@@H](C)[C@@H]1Cc1ccccc1 [Compound 70]	> 70	A (>70)	A (>70)	B (≦70)	56 to 61
COc1ccnc(C(=O)N[C@H]2CCC[C@H](OCC3CC3)[C@@H](Cc3ccc(F)cc3)[C@H](C)OC2=O)c1OCOC(C)=O [Compound 61]	> 70				
CCCC[C@H]1[C@H](C)OC(=O)[C@@H](NC(=O)c2nccc(OC)c2OCOC(C)=O)CCC[C@@H]1Oc1ccccc1 [Compound 33]	> 70				
COc1ccnc(C(=O)N[C@H]2CCC[C@H](Oc3ccccc3)[C@@H](CCC(C)C)[C@H](C)OC2=O)c1OC(C)=O [Compound 36]	> 70	B (≦70)	A (>70)	B (≦70)	
